Molecular target: T1, recombinant MARK4 (Homo sapiens, UniProt Q96L34)
T1 construct: made in house; host or cells: bacterial cells (Luria-Bertani broth, IPTG induction)
T1 sequence (Q96L34 1-752): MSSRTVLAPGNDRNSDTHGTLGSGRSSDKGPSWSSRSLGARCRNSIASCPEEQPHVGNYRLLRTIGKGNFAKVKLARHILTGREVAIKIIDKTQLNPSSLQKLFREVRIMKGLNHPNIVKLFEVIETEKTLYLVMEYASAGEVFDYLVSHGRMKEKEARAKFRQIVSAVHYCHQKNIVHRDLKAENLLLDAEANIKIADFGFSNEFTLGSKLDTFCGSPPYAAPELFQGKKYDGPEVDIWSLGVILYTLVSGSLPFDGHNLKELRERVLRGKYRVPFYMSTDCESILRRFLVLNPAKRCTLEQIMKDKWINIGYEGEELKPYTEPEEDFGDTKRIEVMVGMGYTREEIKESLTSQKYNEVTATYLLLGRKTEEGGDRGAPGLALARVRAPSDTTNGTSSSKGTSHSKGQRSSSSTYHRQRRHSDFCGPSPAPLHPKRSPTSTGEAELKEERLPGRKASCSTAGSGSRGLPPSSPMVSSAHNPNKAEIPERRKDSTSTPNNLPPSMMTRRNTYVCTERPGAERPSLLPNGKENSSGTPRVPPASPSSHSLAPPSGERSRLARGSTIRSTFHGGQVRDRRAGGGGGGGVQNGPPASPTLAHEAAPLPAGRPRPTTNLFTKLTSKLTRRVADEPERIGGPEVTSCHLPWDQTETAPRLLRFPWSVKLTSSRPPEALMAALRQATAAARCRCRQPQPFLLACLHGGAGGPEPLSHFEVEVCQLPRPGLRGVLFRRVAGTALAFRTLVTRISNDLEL
Assay: Isothermal titration calorimetry
Format: binding
Conditions: for Kd: read-out: Ka (converted); for ITC binding in words: at lower stoichiometry, at high concentration they precipitate with MARK4
From the text: In order to measure the actual binding affinity and stoichiometry of selected compounds with the recombinant MARK4, isothermal titration calorimetry (ITC) has been carried out. Negative heat impulses in the upper panel of each isotherm indicate exothermic nature of binding. The amount of heat produced as a result of each injection helps to deliver the molar ratio of studied compound to that of MARK4. Thermodynamic parameters associated with binding of MARK4-compounds (Ka, binding constant and ΔH, enthalpy change) are shown in Table 1.
Figure 5 ITC measurement showing the titration of selected acridone derivatives with recombinant MARK4. (Top) Raw data plot of heat produced against time for the titration of 1000–1500 µM (A) compound 7b, (B) compound 7d, (C) compound 7f, into 20–25 µM MARK4. (Bottom) Corresponding binding isotherm obtained after integration of peak area and normalization to yield a plot of molar enthalpy change against each compound-MARK4 ratio.
ITC experiments were performed on a VP-ITC microcalorimeter (MicroCal, Inc. GE, MicroCal, USA) by following our previously published protocols[41],[47]. For sample preparation, recombinant MARK4 was extensively dialyzed in 20 mM Tris buffer, pH 8.5 and the working solutions of acridone derivatives were prepared in last dialyzing buffer. The titration data so obtained was analyzed with the help of MicroCal Origin 7.0 software provided with the instrument. The thermodynamic parameters of binding such as association constant (Ka), stoichiometry of binding (n), and enthalpy change (ΔH) were determined by fitting the binding isotherm into the ‘one-set of sites’ binding model.

ΔH (from ITC, single-site fitting) | Kd (from ITC, single-site fitting) [µM] | ITC binding in words | SMILES
−3.01 × 10^4 ± 590.10 cal/mol | 7.41 | – | Cc1ccc(NC(=O)Cn2c3ccccc3c(=O)c3cc(C)ccc32)cc1 [Compound 7f, 2-(2-Methyl-9-oxoacridin-10(9H)-yl)-N-(p-tolyl)acetamide]
– | 15.8 | – | COc1ccc(CNC(=O)Cn2c3ccccc3c(=O)c3cc(C)ccc32)cc1 [Compound 7d, N-(4-methoxybenzyl)-2-(2-methyl-9-oxoacridin-10(9H)-yl)acetamide]
– | 15.6 | – | Cc1ccc2c(c1)c(=O)c1ccccc1n2CC(=O)NCc1ccccc1 [Compound 7b, N-benzyl-2-(2-methyl-9-oxoacridin-10(9H)-yl)acetamide]
– | – | do not show significant binding | COc1ccccc1NC(=O)Cn1c2ccccc2c(=O)c2cc(C)ccc21 [Compound 7h, N-(2-methoxyphenyl)-2-(2-methyl-9-oxoacridin-10(9H)-yl)acetamide]
– | – | do not show significant binding | COC(=O)Cn1c2ccccc2c(=O)c2cc(C)ccc21 [Compound 5, Methyl 2-(2-methyl-9-oxoacridin-10(9H)-yl)acetate]

— article PMC6368574, “Probing the Inhibition of Microtubule Affinity Regulating Kinase 4 by N-Substituted Acridones” (Scientific Reports, 2019)
